{"source": "PubChem BioAssay AID1963974", "about": "(Molecular Pharmacology Branch, DTP, NCI, 2024);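 also: spheroids exposed to agents for seven days before reading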;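 as to viability, T/C: percent of vehicle control luminescence where 100% = DMSO treated spheroids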", "tested_on": "648629-189-R-J1-PDC spheroids with HUVEC/MSC, viability", "test": "Anticancer human tumor 648629-189-R-J1-PDC patient-derived bladder carcinoma cell line growth inhibition [PI3K]", "conditions": "for IC50: curve of first compound; for viability, T/C: stronger effect = lower value", "from_the_text": "Combinatorial screen of targeted agents with the PI3K inhibitors inavolisib, alpelisib, duvelisib, and copanlisib in multi-cell type tumor spheroids\nA high-throughput screen of multi-cell type tumor spheroids was designed to identify active combinations of targeted small molecules and PI3K pathway inhibitors. Complex spheroids include a stromal component modeled by human endothelial cells (HUVEC) and fibroblasts modeled by human mesenchymal stem cells (MSCs). The concentration ranges selected for each drug and investigational agent were based upon clinically achievable concentrations if the clinical Cmax of the agent was known.\nCompounds. The drugs and investigational agents: inavolisib (NSC800729), alpelisib (NSC765974), duvelisib (NSC772469), copanlisib (NSC816437), ipatasertib (NSC767898), afuresertib (NSC778305), talazoparib (NSC767125), sapanisertib (NSC764658), selumetinib (NSC741078), tovorafenib (DAY101, NSC766906), vemurafenib (NSC761431), ravoxertinib (NSC781343), sotorasib (NSC818433), MRTX1133 (NSC 836407), abemaciclib (NSC 768073), palbociclib (NSC758247), venetoclax (NSC 766270), SY5609 (NSC837396), enzalutamide (NSC755605), and darolutamide (NSC825331), were obtained from the National Cancer Institute (NCI) Developmental Therapeutics Program Chemical Repository. The FDA-approved anticancer drug set is available from the NCI Developmental Therapeutics Program. […] The stock solutions were prepared in dimethyl sulfoxide (DMSO, Sigma-Aldrich, St. Louis, MO, cat. D2650) at 800-fold the tested concentration and stored at -70 degrees C prior to their use. All drugs and investigational agents were tested over a range starting from a high concentration at or near the clinical Cmax and decreasing in half-log increments. If the clinical Cmax for an agent had not been determined, the highest concentration tested was 10 microM.\nCell Culture. All cells were maintained in an incubator at 37 degrees C and 5% CO2 with 95% humidity. The PDC lines were cultured according to standard operating procedures established by the NCI PDMR (https://pdmr.cancer.gov/sops/default.htm). All PDCs were thawed and cultured in Matrigel-coated flasks prepared with a working solution of 1X Ham's F-12 nutrient mix, without supplementation (Invitrogen, Waltham, MA, cat. 11765054), 100 U/mL penicillin-streptomycin (Invitrogen, cat. 15140122), and 2.5% Matrigel (Corning Inc., Corning, NY, cat. 354248) for the first three passages. The 354836-022-R-J1-PDC, 475296-252-R-J1-PDC, and 997726-040-R-J2-PDC lines were cultured in 6A media, which includes advanced DMEM/F-12 (Thermo Fisher Scientific, cat. 12634028), 10 mM HEPES (Thermo Fisher Scientific, cat. 15630080), 1X GlutaMAX supplement (Thermo Fisher Scientific, cat. 35050061), 0.1 mg/mL primocin (InvivoGen, San Diego, CA, cat. ant-pm-2), 10% defined fetal bovine serum, heat inactivated (HyClone Laboratories Inc., Logan, UT, cat. SH30070.03HI), 50% L-WRN conditioned media (ATCC, cat. CRL-3276), 1.25 mM N-Acetyl-L-cysteine (Sigma-Aldrich, cat. A9165), 10 mM nicotinamide (Sigma-Aldrich, cat. N0636), 1X B-27 supplement (Thermo Fisher Scientific, cat. 17504044), 1X N-2 supplement (Thermo Fisher Scientific, cat. 17502048), and 10 microM Y-27632 dihydrochloride (Tocris Bioscience, Bristol, United Kingdom, cat. 1254). The 624824-186-R-J2-PDC line was cultured in 6C/Colon 1B media, which includes all 6A media components plus 50 ng/mL human EGF recombinant protein (Thermo Fisher Scientific, cat. PHG0311). […]", "data": [{"smiles": "CC(C)n1nc(-c2ccc3oc(N)nc3c2)c2c(N)ncnc21", "note": "+ Cc1nc(NC(=O)N2CCCC2C(N)=O)sc1-c1ccnc(C(C)(C)C(F)(F)F)c1", "values": [{"measurement": "IC50", "setting": "second compound 0.0316 µM", "value": 0.0586, "unit": "µM"}, {"measurement": "IC50", "setting": "second compound 0.1 µM", "value": 0.0567, "unit": "µM"}, {"measurement": "IC50", "setting": "second compound 0.316 µM", "value": 0.0527, "unit": "µM"}, {"measurement": "IC50", "setting": "second compound 1 µM", "value": 0.0333, "unit": "µM"}, {"measurement": "IC50", "setting": "second compound 3.16 µM", "value": 0.011, "unit": "µM"}, {"measurement": "IC50", "setting": "second compound 10 µM", "value": "< 0.000316", "unit": "µM"}, {"measurement": "viability, T/C", "setting": "second compound 0.0316 µM, first compound 0.000316 µM", "value": 111, "unit": "%"}, {"measurement": "viability, T/C", "setting": "second compound 0.0316 µM, first compound 0.001 µM", "value": 95.1, "unit": "%"}, {"measurement": "viability, T/C", "setting": "second compound 0.0316 µM, first compound 0.00316 µM", "value": 109, "unit": "%"}, {"measurement": "viability, T/C", "setting": "second compound 0.0316 µM, first compound 0.01 µM", "value": 97.5, "unit": "%"}, {"measurement": "viability, T/C", "setting": "second compound 0.0316 µM, first compound 0.0316 µM", "value": 70.2, "unit": "%"}, {"measurement": "viability, T/C", "setting": "second compound 0.0316 µM, first compound 0.1 µM", "value": 32.6, "unit": "%"}, {"measurement": "viability, T/C", "setting": "second compound 0.1 µM, first compound 0.000316 µM", "value": 102, "unit": "%"}, {"measurement": "viability, T/C", "setting": "second compound 0.1 µM, first compound 0.001 µM", "value": 94.9, "unit": "%"}, {"measurement": "viability, T/C", "setting": "second compound 0.1 µM, first compound 0.00316 µM", "value": 91.7, "unit": "%"}, {"measurement": "viability, T/C", "setting": "second compound 0.1 µM, first compound 0.01 µM", "value": 84.6, "unit": "%"}, {"measurement": "viability, T/C", "setting": "second compound 0.1 µM, first compound 0.0316 µM", "value": 68, "unit": "%"}, {"measurement": "viability, T/C", "setting": "second compound 0.1 µM, first compound 0.1 µM", "value": 32.8, "unit": "%"}, {"measurement": "viability, T/C", "setting": "second compound 0.316 µM, first compound 0.000316 µM", "value": 87.3, "unit": "%"}, {"measurement": "viability, T/C", "setting": "second compound 0.316 µM, first compound 0.001 µM", "value": 83.5, "unit": "%"}, {"measurement": "viability, T/C", "setting": "second compound 0.316 µM, first compound 0.00316 µM", "value": 83.5, "unit": "%"}, {"measurement": "viability, T/C", "setting": "second compound 0.316 µM, first compound 0.01 µM", "value": 82, "unit": "%"}, {"measurement": "viability, T/C", "setting": "second compound 0.316 µM, first compound 0.0316 µM", "value": 66.1, "unit": "%"}, {"measurement": "viability, T/C", "setting": "second compound 0.316 µM, first compound 0.1 µM", "value": 29.1, "unit": "%"}, {"measurement": "viability, T/C", "setting": "second compound 1 µM, first compound 0.000316 µM", "value": 80.9, "unit": "%"}, {"measurement": "viability, T/C", "setting": "second compound 1 µM, first compound 0.001 µM", "value": 85.2, "unit": "%"}, {"measurement": "viability, T/C", "setting": "second compound 1 µM, first compound 0.00316 µM", "value": 74.2, "unit": "%"}, {"measurement": "viability, T/C", "setting": "second compound 1 µM, first compound 0.01 µM", "value": 64.5, "unit": "%"}, {"measurement": "viability, T/C", "setting": "second compound 1 µM, first compound 0.0316 µM", "value": 53.9, "unit": "%"}, {"measurement": "viability, T/C", "setting": "second compound 1 µM, first compound 0.1 µM", "value": 23.2, "unit": "%"}, {"measurement": "viability, T/C", "setting": "second compound 3.16 µM, first compound 0.000316 µM", "value": 63.9, "unit": "%"}, {"measurement": "viability, T/C", "setting": "second compound 3.16 µM, first compound 0.001 µM", "value": 54.8, "unit": "%"}, {"measurement": "viability, T/C", "setting": "second compound 3.16 µM, first compound 0.00316 µM", "value": 60.5, "unit": "%"}, {"measurement": "viability, T/C", "setting": "second compound 3.16 µM, first compound 0.01 µM", "value": 48.6, "unit": "%"}, {"measurement": "viability, T/C", "setting": "second compound 3.16 µM, first compound 0.0316 µM", "value": 40.7, "unit": "%"}, {"measurement": "viability, T/C", "setting": "second compound 3.16 µM, first compound 0.1 µM", "value": 19.1, "unit": "%"}, {"measurement": "viability, T/C", "setting": "second compound 10 µM, first compound 0.000316 µM", "value": 41.4, "unit": "%"}, {"measurement": "viability, T/C", "setting": "second compound 10 µM, first compound 0.001 µM", "value": 37.5, "unit": "%"}, {"measurement": "viability, T/C", "setting": "second compound 10 µM, first compound 0.00316 µM", "value": 37.5, "unit": "%"}, {"measurement": "viability, T/C", "setting": "second compound 10 µM, first compound 0.01 µM", "value": 33.6, "unit": "%"}, {"measurement": "viability, T/C", "setting": "second compound 10 µM, first compound 0.0316 µM", "value": 27.7, "unit": "%"}, {"measurement": "viability, T/C", "setting": "second compound 10 µM, first compound 0.1 µM", "value": 9.34, "unit": "%"}]}]}
